Each structure is given as a SMILES string.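 Growth conditions: 96-well plates. Treatment: test compound, 48 hours, 5 concentrations. Analysis: linear interpolation between bracketing concentrations; unreached endpoints set to highest concentration. Abbreviation: GI50, concentration required for 50% inhibition of growth. TGI denotes the concentration required for complete inhibition of growth.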

Among the test systems are SK-MEL-5 melanoma; SK-OV-3 ovarian; NCI-H522 lung; MOLT-4 leukemia; EKVX NSCLC; HOP-62 NSCLC; SW-620 colon; HT29 colon; SN12C renal; HL-60(TB) leukemia.
Holding throughout (experiment): growth of human tumour cells (NCI), 48 h

In the case of `CC1=C(CCCOC(=O)NCCCl)C2=C(C)C3(CC3)[C@@](C)(O)C(=O)C2=C1`, the GI50 is 1730 nM with SK-MEL-5 melanoma; 2.35 µM with SK-OV-3 ovarian; 3.99 µM in the assay on NCI-H522 lung; 5.49 µM in the assay with MOLT-4 leukemia; 3.45 µM in the assay on EKVX NSCLC; 2.37 µM with HOP-62 NSCLC. Moreover, the GI50 in the assay with SW-620 colon is 24.5 µM; with HT29 colon, 3.01 µM; in the assay on SN12C renal, 3840 nM; with HL-60(TB) leukemia, 4.57 µM. Moreover, the TGI with SK-MEL-5 melanoma was 3.35 µM; with SK-OV-3 ovarian, 6.46 µM; with NCI-H522 lung, 21.4 µM; with MOLT-4 leukemia it was more than 100 µM; in the assay on EKVX NSCLC it was more than 100 µM; in the assay with HOP-62 NSCLC it was 7.42 µM. The TGI was more than 100 µM in the assay with SW-620 colon, 28.6 µM with HT29 colon, more than 100 µM in the assay on SN12C renal and more than 100 µM in the assay on HL-60(TB) leukemia.
With `CN(C)CCNC(=O)c1cccc2nc3c(Cl)cccc3nc12`, the TGI with SK-MEL-5 melanoma was more than 42.3 µM; with SK-OV-3 ovarian it was more than 31.6 µM; in the assay on NCI-H522 lung it was more than 100 µM; in the assay on MOLT-4 leukemia it was 10.4 µM; in the assay on EKVX NSCLC, 32.9 µM; in the assay with HOP-62 NSCLC it was 26.3 µM. The TGI in the assay on SW-620 colon is more than 40.4 µM; in the assay on HT29 colon it was 15.9 µM; in the assay on SN12C renal, 49.5 µM; with HL-60(TB) leukemia, more than 100 µM.
Take `CCOC(=O)c1cc(-c2ccc([N+](=O)[O-])cc2)n(-c2ccc(C(=O)O)c(O)c2)c1C`: the GI50 in the assay on SK-MEL-5 melanoma was 1640 nM; in the assay with SK-OV-3 ovarian, 10.8 µM; with NCI-H522 lung, 6.48 µM; with MOLT-4 leukemia, 3.37 µM; in the assay with EKVX NSCLC it was 5.2 µM; with HOP-62 NSCLC it was 7.55 µM. Moreover, the GI50 with SW-620 colon is 4.76 µM; in the assay on HT29 colon it was 3.23 µM; in the assay with SN12C renal it was 6730 nM; in the assay on HL-60(TB) leukemia, 4.94 µM. For the same compound, the TGI was 3.43 µM with SK-MEL-5 melanoma; 23 µM in the assay with SK-OV-3 ovarian; 23.9 µM in the assay on NCI-H522 lung; 20.7 µM in the assay on MOLT-4 leukemia; 18 µM with EKVX NSCLC; 23.3 µM in the assay with HOP-62 NSCLC. Besides, the TGI in the assay on SW-620 colon worked out at 16.8 µM; in the assay on HT29 colon, 13.3 µM; with SN12C renal, 22.6 µM; in the assay with HL-60(TB) leukemia, 48.4 µM.
In the case of `N#Cc1c(O)c2c(c(O)c1C#N)C(=O)c1ccccc1C2=O`, the GI50 in the assay on SK-MEL-5 melanoma is 282 nM; in the assay on SK-OV-3 ovarian, 3.99 µM; in the assay with NCI-H522 lung, 2 µM; in the assay with MOLT-4 leukemia, 2.07 µM; in the assay with EKVX NSCLC it was 3.07 µM; in the assay on HOP-62 NSCLC, 3.44 µM. For the same compound, the GI50 in the assay on SW-620 colon was 2.5 µM; in the assay on HT29 colon it was 0.563 µM; with SN12C renal, 1820 nM; in the assay with HL-60(TB) leukemia, 1.44 µM. Further, the TGI with SK-MEL-5 melanoma is 1.14 µM; with SK-OV-3 ovarian, more than 34.9 µM; with NCI-H522 lung, 5.92 µM; with MOLT-4 leukemia, 5.07 µM; in the assay with EKVX NSCLC, 26.1 µM; with HOP-62 NSCLC, 10.5 µM. For the same compound, the TGI was 7.55 µM with SW-620 colon, 3.96 µM with HT29 colon, 4.04 µM with SN12C renal and 3.64 µM with HL-60(TB) leukemia.
For the compound `COc1ccc(-n2cc(-c3ccc(OC)c(OC)c3)[nH]c2=S)cc1Cl`, the GI50 was more than 100000 nM in the assay on SK-MEL-5 melanoma; more than 100 µM with SK-OV-3 ovarian; more than 100 µM with NCI-H522 lung; 77.4 µM in the assay on MOLT-4 leukemia; 41.5 µM in the assay on EKVX NSCLC; 30.2 µM in the assay with HOP-62 NSCLC. Besides, the GI50 with SW-620 colon was more than 100 µM; with HT29 colon, more than 100 µM; in the assay on SN12C renal it was more than 100000 nM; in the assay with HL-60(TB) leukemia, more than 100 µM. Moreover, the TGI with SK-MEL-5 melanoma, in the assay with SK-OV-3 ovarian, in the assay on NCI-H522 lung, in the assay on MOLT-4 leukemia, with EKVX NSCLC and in the assay on HOP-62 NSCLC was more than 100 µM each time. Further, the TGI with SW-620 colon, in the assay with HT29 colon, in the assay on SN12C renal and in the assay on HL-60(TB) leukemia was more than 100 µM in each case.
`CC(=O)OCCc1cccnc1/C=N/O`: the TGI in the assay with SK-MEL-5 melanoma, in the assay on SK-OV-3 ovarian, in the assay on NCI-H522 lung, in the assay on MOLT-4 leukemia, in the assay on EKVX NSCLC and with HOP-62 NSCLC was more than 100 µM throughout. Besides, the TGI in the assay with SW-620 colon, in the assay with HT29 colon, in the assay with SN12C renal and in the assay on HL-60(TB) leukemia was more than 100 µM in each case.
On to `COC(=O)c1c(OC)cccc1C(=O)O`, for which the TGI in the assay on SK-MEL-5 melanoma, in the assay with SK-OV-3 ovarian, in the assay with NCI-H522 lung, in the assay with MOLT-4 leukemia, in the assay on EKVX NSCLC and in the assay on HOP-62 NSCLC was more than 100 µM each time. Besides, the TGI in the assay with SW-620 colon, in the assay with HT29 colon, in the assay with SN12C renal and in the assay with HL-60(TB) leukemia was more than 100 µM in each case.
`N#Cc1cnn2ccn(C3OC(COC(=O)c4ccccc4)C(OC(=O)c4ccccc4)C3OC(=O)c3ccccc3)c12` (stereo not given): the TGI with SK-MEL-5 melanoma, with SK-OV-3 ovarian, in the assay with NCI-H522 lung, in the assay on MOLT-4 leukemia, in the assay on EKVX NSCLC and in the assay with HOP-62 NSCLC was more than 21.5 µM each time. Also, the TGI in the assay with SW-620 colon, in the assay on HT29 colon, with SN12C renal and in the assay with HL-60(TB) leukemia was more than 21.5 µM in each case.
In the case of `OCc1c(-c2cccc3ccccc23)sc(-c2cccc3ccccc23)c1CO`, the TGI is 23.6 µM in the assay with SK-MEL-5 melanoma; 29.3 µM with SK-OV-3 ovarian; 22.9 µM in the assay with NCI-H522 lung; 42.2 µM with MOLT-4 leukemia; 25 µM in the assay on EKVX NSCLC; 26.3 µM with HOP-62 NSCLC. The TGI came to 29.2 µM in the assay with SW-620 colon, 31.5 µM with HT29 colon, 26.8 µM in the assay on SN12C renal and 42.5 µM in the assay with HL-60(TB) leukemia.
Consider `O=C(Nc1ccccc1[N+](=O)[O-])c1ccccc1`, for which the TGI with SK-MEL-5 melanoma, with SK-OV-3 ovarian, in the assay with NCI-H522 lung, in the assay on MOLT-4 leukemia, in the assay with EKVX NSCLC and in the assay on HOP-62 NSCLC was more than 100 µM throughout. Besides, the TGI with SW-620 colon, in the assay on HT29 colon, with SN12C renal and in the assay on HL-60(TB) leukemia was more than 100 µM throughout.
Consider `O=C(Cc1ccc(/C=C/C(=O)c2ncc[nH]2)cc1)Nc1ccc(Cl)cc1`, for which the GI50 was 6160 nM with SK-MEL-5 melanoma; 9.74 µM in the assay on SK-OV-3 ovarian; 2.6 µM with NCI-H522 lung; 1.8 µM in the assay with MOLT-4 leukemia; 5.68 µM with EKVX NSCLC; 3.19 µM in the assay with HOP-62 NSCLC. Further, the GI50 with SW-620 colon is 1.43 µM; in the assay with HT29 colon it was 0.886 µM; in the assay with SN12C renal, 2400 nM; in the assay with HL-60(TB) leukemia, 3.8 µM. The TGI in the assay with SK-MEL-5 melanoma was 17.4 µM; in the assay on SK-OV-3 ovarian, more than 25 µM; in the assay with NCI-H522 lung it was 7.23 µM; in the assay with MOLT-4 leukemia it was 24.2 µM; in the assay with EKVX NSCLC it was 20.2 µM; with HOP-62 NSCLC it was 8.78 µM. In addition, the TGI in the assay on SW-620 colon was more than 25 µM; with HT29 colon, 2.96 µM; with SN12C renal it was 6.91 µM; in the assay with HL-60(TB) leukemia, 21.8 µM.
As to `COC(=O)C(CC(=O)c1cc2c(cc1I)OCO2)Cc1cc(OC)c(OC)c(OC)c1I` (stereo not given), the TGI with SK-MEL-5 melanoma, with SK-OV-3 ovarian, in the assay on NCI-H522 lung, in the assay with MOLT-4 leukemia, with EKVX NSCLC and in the assay on HOP-62 NSCLC was more than 100 µM in each case. Also, the TGI with SW-620 colon, in the assay with HT29 colon, in the assay on SN12C renal and with HL-60(TB) leukemia was more than 100 µM in each case.
For the compound `O=C1c2ccccc2C(=O)c2c1ccc1[nH]c(CCl)nc21`, the GI50 was 1680 nM in the assay with SK-MEL-5 melanoma; 3.67 µM in the assay on SK-OV-3 ovarian; 1.63 µM in the assay on NCI-H522 lung; 1.68 µM with MOLT-4 leukemia; 2.59 µM in the assay on EKVX NSCLC; 3.12 µM with HOP-62 NSCLC. The GI50 was 1.56 µM in the assay on SW-620 colon, 1.89 µM with HT29 colon, 2080 nM with SN12C renal and 2.64 µM in the assay on HL-60(TB) leukemia. Further, the TGI with SK-MEL-5 melanoma was 3.07 µM; with SK-OV-3 ovarian, 9.08 µM; with NCI-H522 lung it was 3.53 µM; in the assay on MOLT-4 leukemia, 8.04 µM; in the assay on EKVX NSCLC, 10.7 µM; in the assay on HOP-62 NSCLC, 9.42 µM. Further, the TGI with SW-620 colon amounted to 3.3 µM; in the assay with HT29 colon it was 4.77 µM; with SN12C renal, 4.87 µM; with HL-60(TB) leukemia, 7 µM.
As to `CC1=C2[C@@H](CC1)[C@]1(C)O[C@@](C(C)C)(C[C@H]1OC(=O)[C@H](C)O)[C@H]2OC(=O)/C=C/c1ccccc1`, the GI50 in the assay on SK-MEL-5 melanoma was 13600 nM; in the assay on SK-OV-3 ovarian, 15.3 µM; in the assay with NCI-H522 lung, 13.3 µM; in the assay on MOLT-4 leukemia it was 10.7 µM; with EKVX NSCLC it was 6.19 µM; with HOP-62 NSCLC, 13.9 µM. Besides, the GI50 in the assay on SW-620 colon was 16.4 µM; with HT29 colon, 13.6 µM; with SN12C renal, 1470 nM; in the assay with HL-60(TB) leukemia, 13.5 µM. In addition, the TGI worked out at 26.7 µM with SK-MEL-5 melanoma; 38 µM in the assay on SK-OV-3 ovarian; 29.1 µM in the assay with NCI-H522 lung; 32 µM with MOLT-4 leukemia; 21.7 µM in the assay with EKVX NSCLC; 29.3 µM with HOP-62 NSCLC. Moreover, the TGI with SW-620 colon stood at 33.9 µM; in the assay on HT29 colon, 30 µM; in the assay on SN12C renal it was 24.6 µM; in the assay on HL-60(TB) leukemia it was 39.5 µM.

The values are drawn from PubChem BioAssay (NCI).
